From ChEMBL document CHEMBL1201862, “PubChem BioAssay data set” (2004)
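48-hour exposure; five concentrations; linearly interpolated endpoints. Here, GI50 denotes the concentration required for 50% inhibition of growth.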 Calls of active or inactive are those of the source. Cut-off read from the data, not from the text of the source: active = GI50 up to about 1.1 µM and inactive = higher. Positions of bridges follow the written chain, without caps; N, C: chain ends. Non-standard residues stand in square brackets, D forms with d. Residues, ends and D or L forms follow the SMILES beside them. *: point of attachment. PhAc = O=C(Cc1ccccc1)*

Experiments:
Experiment in all cases: NCI-60 cell line screen, 48 h
[1] = system: HT-29
[2] = system: COLO 205
[3] = system: SF-268
[4] = system: Malme-3M
[5] = system: CCRF-CEM
[6] = system: TK-10
[7] = system: MDA-N
[8] = system: HOP-62
[9] = system: MDA-MB-435
[10] = system: K562
[11] = system: UACC-62
[12] = system: SN12C
[13] = system: HCT-116
[14] = system: MOLT-4
[15] = system: HCC 2998
[16] = system: U-251
[17] = system: MDA-MB-231
[18] = system: T47D
[19] = system: BT-549

| Compound | GI50 [1] | GI50 [2] | GI50 [3] | GI50 [4] | GI50 [5] | GI50 [6] | GI50 [7] | GI50 [8] | GI50 [9] | GI50 [10] | GI50 [11] | GI50 [12] | GI50 [13] | GI50 [14] | GI50 [15] | GI50 [16] | GI50 [17] | GI50 [18] | GI50 [19] |
| --- | --- | --- | --- | --- | --- | --- | --- | --- | --- | --- | --- | --- | --- | --- | --- | --- | --- | --- | --- |
| Sc1nnc(COc2ccc(Cl)cc2)n1-c1ccccc1 | > 100 µM (inactive) | 88.1 µM (inactive) | > 100 µM (inactive) | > 100 µM (inactive) | 74.1 µM (inactive) | > 100 µM (inactive) | > 100 µM (inactive) | > 100 µM (inactive) | > 100 µM (inactive) | 95.7 µM (inactive) | > 100 µM (inactive) | > 100 µM (inactive) | 46.1 µM (inactive) | 88.3 µM (inactive) | > 100 µM (inactive) | > 100 µM (inactive) | > 100 µM (inactive) | 30.4 µM (inactive) |  |
| COc1ccccc1N=C(S)Nc1ccccn1 | > 100 µM (inactive) | > 100 µM (inactive) | 45.6 µM (inactive) | > 100 µM (inactive) | > 100 µM (inactive) | 64.1 µM (inactive) |  | 63.4 µM (inactive) | > 100 µM (inactive) | > 100 µM (inactive) | > 100 µM (inactive) |  | > 100 µM (inactive) | > 100 µM (inactive) |  | 58.5 µM (inactive) | > 100 µM (inactive) |  | > 100 µM (inactive) |
| O=C1Nc2ccccc2/C1=N/NC(=S)Nc1cccc(Cl)c1 | 10.1 µM (inactive) | 8.93 µM (inactive) | 4.53 µM (inactive) | 19.9 µM (inactive) | 2.75 µM (inactive) | 31.4 µM (inactive) | 27.9 µM (inactive) | 10.9 µM (inactive) | 17.7 µM (inactive) | 4.7 µM (inactive) | 8.41 µM (inactive) | 14.4 µM (inactive) | 3.49 µM (inactive) | 0.614 µM (active) | 66.4 µM (inactive) | 10.8 µM (inactive) | 11.1 µM (inactive) | 48.9 µM (inactive) |  |
| COc1cc(C2C3C=CC=C4CC=CC(=C43)C3CCC(=O)N32)cc(OC)c1OC (configuration not stated) | 61.5 µM (inactive) |  | > 100 µM (inactive) |  |  | > 100 µM (inactive) |  | > 100 µM (inactive) | > 100 µM (inactive) | > 100 µM (inactive) | 30.8 µM (inactive) | > 100 µM (inactive) | 94.8 µM (inactive) | > 100 µM (inactive) |  | > 100 µM (inactive) | > 100 µM (inactive) | 36.1 µM (inactive) |  |
| O=C1N/N=C\c2ccc(cc2)OCc2cccc(n2)COc2ccc(cc2)/C=N\NC1=O | > 25 µM (inactive) | > 25 µM (inactive) | > 25 µM (inactive) | > 25 µM (inactive) | > 25 µM (inactive) | > 25 µM (inactive) | > 25 µM (inactive) | > 25 µM (inactive) | > 25 µM (inactive) | > 25 µM (inactive) | > 25 µM (inactive) | > 25 µM (inactive) | > 25 µM (inactive) | > 25 µM (inactive) |  | > 25 µM (inactive) | > 25 µM (inactive) |  | > 25 µM (inactive) |
| COc1cc2c(c(OC)c1OC)-c1ccc(SC)cc1C(O)CC2 (configuration not stated) |  | < 0.01 µM (active) | < 0.01 µM (active) | 0.0132 µM (active) | < 0.01 µM (active) | 41 µM (inactive) | 0.19 µM (active) |  | < 0.01 µM (active) | < 0.01 µM (active) | < 0.01 µM (active) | 0.427 µM (active) | < 0.01 µM (active) | < 0.01 µM (active) | < 0.01 µM (active) |  | 0.394 µM (active) | > 100 µM (inactive) |  |
| CC1=C(C)Cc2c(O)ccc(O)c2C1 | 14.1 µM (inactive) | 20.4 µM (inactive) | 15.5 µM (inactive) | 17.5 µM (inactive) | 3.12 µM (inactive) | 20.7 µM (inactive) | 17 µM (inactive) | 21.5 µM (inactive) | 16.8 µM (inactive) | 18.8 µM (inactive) | 16.5 µM (inactive) | 21.8 µM (inactive) | 15.9 µM (inactive) | 19.3 µM (inactive) |  | 16.6 µM (inactive) | 18 µM (inactive) | 18.5 µM (inactive) |  |
| CN1c2ccccc2NC(CC(=O)O)C2CC=CN21 (configuration not stated) | > 100 µM (inactive) | > 100 µM (inactive) | > 100 µM (inactive) | > 100 µM (inactive) | > 100 µM (inactive) | > 100 µM (inactive) |  | > 100 µM (inactive) |  | > 100 µM (inactive) | > 100 µM (inactive) | > 100 µM (inactive) |  | > 100 µM (inactive) |  | > 100 µM (inactive) |  |  |  |
| CN(/N=C\c1ccnc2ccccc12)c1ccc([N+](=O)[O-])cc1 | > 100 µM (inactive) | > 100 µM (inactive) | 9.51 µM (inactive) | > 100 µM (inactive) | 19.5 µM (inactive) | > 100 µM (inactive) |  | > 100 µM (inactive) |  | 25.3 µM (inactive) | 84.7 µM (inactive) | > 100 µM (inactive) | 11.6 µM (inactive) | > 100 µM (inactive) | > 100 µM (inactive) | 8.77 µM (inactive) |  |  |  |
| COc1ccc2nc(-c3ccc(OC(=O)N(C)C)cc3)cn2c1 | 27.8 µM (inactive) | 41.4 µM (inactive) | > 100 µM (inactive) | > 100 µM (inactive) | 67.5 µM (inactive) | > 100 µM (inactive) | > 100 µM (inactive) | > 100 µM (inactive) | > 100 µM (inactive) | 39 µM (inactive) | > 100 µM (inactive) | > 100 µM (inactive) | > 100 µM (inactive) | 82 µM (inactive) | > 100 µM (inactive) | > 100 µM (inactive) | > 100 µM (inactive) | 71.4 µM (inactive) |  |
| CC1=C/C(=N\NS(=O)(=O)c2ccc([N+](=O)[O-])cc2)CC(C)(C)C1 |  | > 100 µM (inactive) | 83.6 µM (inactive) | > 100 µM (inactive) | > 100 µM (inactive) | > 100 µM (inactive) | > 100 µM (inactive) | > 100 µM (inactive) | > 100 µM (inactive) | 62.1 µM (inactive) | 50.2 µM (inactive) | 73.5 µM (inactive) | 84.3 µM (inactive) | > 100 µM (inactive) | > 100 µM (inactive) | 97.1 µM (inactive) | > 100 µM (inactive) | > 100 µM (inactive) |  |
| C#CC(C)(C)Oc1cc(OC)c2c(=O)c3ccccc3n(C)c2c1 | 4.81 µM (inactive) | 14.8 µM (inactive) | 11.6 µM (inactive) |  | 5.27 µM (inactive) | 23.6 µM (inactive) | 12.6 µM (inactive) | 27 µM (inactive) | 11 µM (inactive) | 10.7 µM (inactive) | 7.59 µM (inactive) | 10 µM (inactive) | 17.4 µM (inactive) | 3.85 µM (inactive) | 30.7 µM (inactive) | 30.3 µM (inactive) | 15.2 µM (inactive) | 2.84 µM (inactive) |  |
| O=C(Cc1ccccc1)N[C@@H]1COC(=O)[C@@H]2CCCN2C(=O)[C@@H]2CCCN2C1=O (PhAc-[dS]-Pro-Pro; ester 1-C) | > 100 µM (inactive) | > 100 µM (inactive) | > 100 µM (inactive) | > 100 µM (inactive) | > 100 µM (inactive) | > 100 µM (inactive) | > 100 µM (inactive) | > 100 µM (inactive) | > 100 µM (inactive) |  | > 100 µM (inactive) | > 100 µM (inactive) | > 100 µM (inactive) | > 100 µM (inactive) | > 100 µM (inactive) |  | > 100 µM (inactive) | > 100 µM (inactive) |  |
